Measurements published in patent US20240336659A1, “CELL-PENETRATING PEPTIDE, ANTI-CANCER PEPTIDE, AND PHARMACEUTICAL COMPOSITION FOR PREVENTING OR TREATING CANCER, COMPRISING SAME” (ONECUREGEN CO., LTD., priority 2021, published 2024).
Positions of bridges follow the written chain, without caps; N, C: chain ends. Residues, ends and D or L forms follow the SMILES beside them. No end group written: not given here.

Experiments:
[1] = test system: lung normal cell line CCD39; settings: CCD39, 30 μM and 60 μM
Procedure: (§1) To analyze the cytotoxicity of cell therapeutic peptide fragments on normal cell lines, lung normal cell lines WI38 and CCD39 were treated with OCP9 (SEQ ID NO: 16), OCP9-VGLLIS84-7CC (SEQ ID NO: 44), OCP9-VGLLIS84-9CC (SEQ ID NO: 46) and OCP9-VGLL1S84-11CC (SEQ ID NO: 48) at 30 μM and 60 μM, respectively, and the growth degrees of the cell lines were evaluated.

[2] = test system: lung normal cell line WI38; settings: WI38, 30 μM and 60 μM
Procedure: as §1

[3] = test system: stomach cancer cell line NUGC3; assay: Cell growth inhibition (sulforhodamine B staining); assay type: cell-based; settings: for cancer cell growth inhibitory effect: NUGC3, 10 μM screening of Table 4 peptides
Procedure: Specifically, in order to confirm cell growth ability, a stomach cancer cell line NUGC3 and a breast cancer cell line SK-BR-3 were each subcultured in a 96-well plate, and the next day, peptide fragments Con, 7, and CC of Table 2 were treated with 100 μM each to the cell lines. After 72 hours, the cells were immobilized with a 10% trichloroacetic acid solution, and then stained the cell with a 0.4% sulforhodamine B solution for 1 hour, washed with acetic acid, and dried. Thereafter, the dried cells were dissolved in a 10 mM Tris solution and absorbance was measured at 510 nm using an ELISA plate reader.
In order to compare the cancer cell growth inhibitory effects of cancer therapeutic peptides according to cell-penetrating peptides, the stomach cancer cell line NUGC3 was treated with 10 μM each of cancer therapeutic peptide fragments in Table 4, and the cancer cell growth inhibitory effects were screened in the same manner as in Example 1.
Specifically, in order to confirm the cancer cell inhibition enhancing effect by enhancing the cell permeability of OCP5 among the novel synthesized CPPs, a cancer therapeutic peptide fragment represented by SEQ ID NO: 6 including the existing TAT and a cancer therapeutic peptide fragment represented by SEQ ID NO: 31 including the novel synthesized OCP5 were used. The stomach cancer cell lines NUGC3 and AGS, the breast cancer cell line SK-BR-3, and the pancreatic cancer cell line Capan-1 were treated with 25 μM SEQ ID NO: 6 and 100 μM SEQ ID NO: 31 for 72 hours, respectively, and the cancer cell growth inhibitory effects were compared in the same manner as in Example 1. […] Through this, it was confirmed that the novel CPP may be applied more effectively than the existing TAT to inhibit the cancer cell growth by the anticancer peptides.
To analyze the cancer cell growth inhibitory effect according to a length of the anticancer peptide fragment, OCP9-VGLLIS84-7 (SEQ ID NO: 43), OCP9-VGLLIS84-9CC (SEQ ID NO: 46), and OCP9-VGLLIS84-15 (SEQ ID NO: 49) were treated for each concentration to analyze the growth inhibitory effects of stomach cancer cell lines NUGC3 and NCI-N87. When stomach cancer cells were treated with cancer therapeutic peptides, the cancer cell growth inhibitory efficacy was shown in a concentration-dependent manner. In addition, it was confirmed that the growth inhibitory effect on the stomach cancer cell lines increased as the length of the anticancer peptide fragment increased (FIG. 7).
Specifically, the cancer cell growth inhibitory effect according to partial or entire cyclization of the anticancer peptide fragment was analyzed. The stomach cancer cell line NUGC3 was treated with a CPP fragment OCP9 (SEQ ID NO: 16), a partially cyclized sequence […] (SEQ ID NO: 33), or a sequence OCP9-VGLLIS84-7CC (SEQ ID NO: 40) including an entirely cyclized anticancer peptide at different concentrations of 1, 2.5, 5, 10, and 20 μM, respectively, and the cancer cell growth inhibitory effects were compared in the same manner as in Example 1.

[4] = test system: cell line NUGC3; assay: Cell permeability of FITC-conjugated peptides by FACS; assay type: cell-based; settings: NUGC3, 1.5 or 2.5 μM FITC-conjugated peptide, 3 hours; compared to TAT
Procedure: To quantitatively measure the cell permeability of the novel synthesized cell-penetrating peptides, 1.5 or 2.5 μM FITC-conjugated peptides were administered to the cell line NUGC3 or the normal cell line WI38, and after 3 hours, the amounts of FITC present in the cells were measured by FACS.

Compound: CC[C@H](C)[C@@H]1NC(=O)[C@H](CCCNC(=N)N)NC(=O)[C@H](Cc2ccccc2)NC(=O)[C@H]([C@@H](C)CC)NC(=O)[C@H]([C@@H](C)CC)NC(=O)[C@H](CO)NC(=O)[C@@H](N)CSSC[C@@H](C(=O)O)NC(=O)[C@H](CCCCN)NC(=O)[C@H]([C@@H](C)O)NC(=O)[C@H](Cc2c[nH]c3ccccc23)NC(=O)[C@@H]2CCCN2C(=O)[C@H](CO)NC(=O)[C@H](CO)NC(=O)[C@H](Cc2ccc(O)cc2)NC(=O)[C@H](CCCNC(=N)N)NC(=O)[C@H](CCCNC(=N)N)NC(=O)[C@H](CCCNC(=N)N)NC(=O)[C@H](CCCNC(=N)N)NC(=O)[C@H](CCCNC(=N)N)NC(=O)[C@H](Cc2ccccc2)NC1=O [OCP9-VGLL1S84-7CC, CSIIFRIFRRRRR-YSSPWTKC] (HELM PEPTIDE1{C.S.I.I.F.R.I.F.R.R.R.R.R.Y.S.S.P.W.T.K.C}$PEPTIDE1,PEPTIDE1,1:R3-21:R3$$$V2.0)
- cytotoxicity (growth inhibitory or abnormal effect) [1]: no cytotoxicity
- cytotoxicity (growth inhibitory or abnormal effect) [2]: no cytotoxicity

Compound: CC[C@H](C)[C@@H]1NC(=O)[C@H](CCCNC(=N)N)NC(=O)[C@H](Cc2ccccc2)NC(=O)[C@H]([C@@H](C)CC)NC(=O)[C@H]([C@@H](C)CC)NC(=O)[C@H](CO)NC(=O)[C@@H](N)CSSC[C@@H](C(=O)O)NC(=O)[C@H](CCCCN)NC(=O)[C@H]([C@@H](C)O)NC(=O)[C@H](Cc2c[nH]c3ccccc23)NC(=O)[C@@H]2CCCN2C(=O)[C@H](CO)NC(=O)[C@H](CO)NC(=O)[C@H](Cc2ccc(O)cc2)NC(=O)[C@H](CCCNC(=N)N)NC(=O)[C@H](Cc2c[nH]c3ccccc23)NC(=O)[C@H](CCCNC(=N)N)NC(=O)[C@H](CCCNC(=N)N)NC(=O)[C@H](CCCNC(=N)N)NC(=O)[C@H](CCCNC(=N)N)NC(=O)[C@H](CCCNC(=N)N)NC(=O)[C@H](Cc2ccccc2)NC1=O [OCP9-VGLL1S84-9CC, CSIIFRIFRRRRR-WRYSSPWTKC] (HELM PEPTIDE1{C.S.I.I.F.R.I.F.R.R.R.R.R.W.R.Y.S.S.P.W.T.K.C}$PEPTIDE1,PEPTIDE1,1:R3-23:R3$$$V2.0)
- cytotoxicity (growth inhibitory or abnormal effect) [1]: no cytotoxicity
- cytotoxicity (growth inhibitory or abnormal effect) [2]: no cytotoxicity

Compound: CC[C@H](C)[C@@H]1NC(=O)[C@H](CCCNC(=N)N)NC(=O)[C@H](Cc2ccccc2)NC(=O)[C@H]([C@@H](C)CC)NC(=O)[C@H]([C@@H](C)CC)NC(=O)[C@H](CO)NC(=O)[C@@H](N)CSSC[C@@H](C(=O)O)NC(=O)[C@H](CCCCN)NC(=O)[C@H]([C@@H](C)O)NC(=O)[C@H](Cc2c[nH]c3ccccc23)NC(=O)[C@@H]2CCCN2C(=O)[C@H](CO)NC(=O)[C@H](CO)NC(=O)[C@H](Cc2ccc(O)cc2)NC(=O)[C@H](CCCNC(=N)N)NC(=O)[C@H](Cc2c[nH]c3ccccc23)NC(=O)[C@H](CCC(N)=O)NC(=O)[C@H](CC(N)=O)NC(=O)[C@H](CCCNC(=N)N)NC(=O)[C@H](CCCNC(=N)N)NC(=O)[C@H](CCCNC(=N)N)NC(=O)[C@H](CCCNC(=N)N)NC(=O)[C@H](CCCNC(=N)N)NC(=O)[C@H](Cc2ccccc2)NC1=O [OCP9-VGLL1S84-11CC, CSIIFRIFRRRRR-NQWRYSSPWTKC] (HELM PEPTIDE1{C.S.I.I.F.R.I.F.R.R.R.R.R.N.Q.W.R.Y.S.S.P.W.T.K.C}$PEPTIDE1,PEPTIDE1,1:R3-25:R3$$$V2.0)
- cytotoxicity (growth inhibitory or abnormal effect) [1]: no cytotoxicity
- cytotoxicity (growth inhibitory or abnormal effect) [2]: no cytotoxicity

Compound: KKKKRKVRGDSI (OCP15)
- cancer cell growth inhibitory effect [3]: excluding

Compound: KKKKRKVSIIFIRGD (OCP16)
- cancer cell growth inhibitory effect [3]: excluding

Compound: KKKKRKVSIIFRIF (OCP18)
- intracellular permeability (amount of FITC in the cells) [4]: significantly increased

Compound: KKKKRKVSIRGD (OCP17)
- cancer cell growth inhibitory effect [3]: excluding

Compound: RRRRRGDSIIF (OCP13)
- cancer cell growth inhibitory effect [3]: excluding

Compound: RRRRRSIIFRGD (OCP12)
- cancer cell growth inhibitory effect [3]: excluding

Compound: SIIFRIFLHLQK (OCP1)
- cell permeability (as concluded from the growth inhibition screening) ([3]; NUGC3, 10 μM screening): increased

Compound: SIIFRIFLHLQK-CYSSPWTKC (SIIFRIFLHLQKCYSSPWTKC; disulfide 13-21) [SEQ ID NO: 31]
- cancer cell growth inhibitory effect [3]: significant cancer cell growth inhibitory effect

Compound: SIIFRIFRRRRR (OCP9)
- intracellular permeability (amount of FITC in the cells) [4]: significantly increased
